The record followed here is US9409908B2 (priority 2012, dated 2016).

Where a name gives a salt, the structure may show the parent alone. Read-outs that look alike come from different tables or passages of the source. Where only a bound is given, the exact number is not on record here.

The conditions of series [1]: rcm bond, Grubbs II, 40.0 °C.
For series [2] the following is noted: from C=CC[C@H](NC(=O)OC(C)(C)C)c1cc(-c2ccncc2NC(=O)[C@H](C)C=C)ccn1; rcm bond; 12-membered ring; Grubbs II/pTsOH; CH2Cl2; 5.2 mM; 40.0 °C.
In series [3] the target is purified human plasma kallikrein (Homo sapiens (Human), UniProt P03952). Put plainly: biochemical. The format is biochemical. The settings on record: read-out: Plasma Kallikrein Ki.
Series [4] has as its target purified human Factor XIa (Homo sapiens (Human), UniProt P03951). Kind of series: biochemical. The format is biochemical. Particulars: read-out: Factor XIa Ki.

Chain of purified human Factor XIa (P03951 whole entry, looked up): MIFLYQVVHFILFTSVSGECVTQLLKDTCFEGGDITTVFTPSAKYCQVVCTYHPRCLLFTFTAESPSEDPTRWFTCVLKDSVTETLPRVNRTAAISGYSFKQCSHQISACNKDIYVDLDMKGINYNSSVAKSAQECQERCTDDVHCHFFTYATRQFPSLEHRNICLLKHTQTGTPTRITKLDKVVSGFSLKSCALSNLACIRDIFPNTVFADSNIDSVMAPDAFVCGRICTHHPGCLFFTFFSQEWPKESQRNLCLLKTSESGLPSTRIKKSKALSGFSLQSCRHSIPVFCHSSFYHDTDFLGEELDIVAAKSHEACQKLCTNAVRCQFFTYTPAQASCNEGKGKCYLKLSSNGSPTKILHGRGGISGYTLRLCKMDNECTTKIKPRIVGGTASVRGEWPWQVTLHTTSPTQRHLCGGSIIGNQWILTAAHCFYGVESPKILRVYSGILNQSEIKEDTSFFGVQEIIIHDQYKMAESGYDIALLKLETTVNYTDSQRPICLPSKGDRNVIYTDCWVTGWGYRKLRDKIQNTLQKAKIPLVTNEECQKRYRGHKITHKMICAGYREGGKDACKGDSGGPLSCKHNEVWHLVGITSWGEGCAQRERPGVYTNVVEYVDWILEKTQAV
Chain of purified human Factor XIa (P03951 whole entry partner, looked up): as the sequence (P03951 whole entry, looked up) above
Chain of purified human plasma kallikrein (P03952 whole entry, looked up): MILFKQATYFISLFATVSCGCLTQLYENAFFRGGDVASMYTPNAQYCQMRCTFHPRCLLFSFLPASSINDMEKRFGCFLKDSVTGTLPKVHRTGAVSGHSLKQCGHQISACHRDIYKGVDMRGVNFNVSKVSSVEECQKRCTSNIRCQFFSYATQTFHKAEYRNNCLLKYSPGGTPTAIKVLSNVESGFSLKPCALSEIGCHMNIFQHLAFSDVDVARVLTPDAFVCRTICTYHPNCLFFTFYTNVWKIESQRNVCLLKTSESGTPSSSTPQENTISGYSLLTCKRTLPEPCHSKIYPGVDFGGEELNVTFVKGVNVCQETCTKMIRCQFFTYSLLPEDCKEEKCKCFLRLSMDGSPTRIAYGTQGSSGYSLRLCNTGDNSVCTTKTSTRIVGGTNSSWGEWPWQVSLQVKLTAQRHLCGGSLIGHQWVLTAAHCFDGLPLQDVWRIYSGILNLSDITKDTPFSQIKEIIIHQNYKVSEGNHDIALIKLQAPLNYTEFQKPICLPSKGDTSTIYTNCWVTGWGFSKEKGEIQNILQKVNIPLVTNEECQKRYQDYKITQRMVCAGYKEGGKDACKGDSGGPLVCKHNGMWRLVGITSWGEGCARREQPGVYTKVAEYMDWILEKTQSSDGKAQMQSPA
Chain of purified human plasma kallikrein (P03952 whole entry partner, looked up): as the sequence (P03952 whole entry, looked up) above

As to `COC(=O)Nc1ccc2c(c1)C(=O)NC/C=C/C[C@H](NC(=O)OC(C)(C)C)c1cc-2ccn1`, the ring closure, yield of all isomers in series [1] (from C=CCNC(=O)c1cc(NC(=O)OC)ccc1-c1ccnc([C@H](CC=C)NC(=O)OC(C)(C)C)c1, DCM, […], 3.0 h) stood at 39.4%. In series [1] (from C=CC[C@H](NC(=O)OC(C)(C)C)c1nc(-c2ccc(NC(=O)OC)cc2NC(=O)[C@H](C)C=C)cn1COCC[Si](C)(C)C, dichloromethane, 9.73 mM, 21.5 h), `COC(=O)Nc1ccc2c(c1)NC(=O)[C@H](C)/C=C/C[C@H](NC(=O)OC(C)(C)C)c1nc-2cn1COCC[Si](C)(C)C` came in with a ring closure, yield of all isomers of 74%. `C[C@@H]1/C=C/C[C@H](NC(=O)OC(C)(C)C)c2cc(ccn2)-c2ccccc2NC1=O` registered a ring closure, yield of all isomers in series [1] (from C=CC[C@H](NC(=O)OC(C)(C)C)c1cc(-c2ccccc2NC(=O)[C@H](C)C=C)ccn1, dichloromethane, 11.8 mM, 4.5 h) of 78%. Regarding `C[C@@H]1/C=C/C[C@H](NC(=O)OC(C)(C)C)c2cc(ccn2)-c2ccncc2NC1=O`, the ring closure, yield after HPLC in series [2] was 7.3%. The compound further had a ring closure, yield of all isomers in series [1] (from C=CC[C@H](NC(=O)OC(C)(C)C)c1cc(-c2ccncc2NC(=O)[C@H](C)C=C)ccn1, CH2Cl2, 5.06 mM, 24.0 h) of 7.3%. A word on the Ki: it is the equilibrium dissociation constant of an inhibitor or competing ligand from its target. Regarding `Cc1[nH]c2nc1-c1ccccc1NC(=O)[C@H](C)CCC[C@@H]2N1CCC(c2c(F)ccc(Cl)c2F)=CC1=O` [Example 220, (10R,14S)-14-[4-(3-chloro-2,6-difluorophenyl)-6-oxo-1,2,3,6-tetrahydropyridin-1-yl]-10,17-dimethyl-8,16,18-triazatricyclo[13.2.1.0^2,7]octadeca-1(17),2,4,6,15(18)-pentaen-9-one, TFA salt], the Ki is 50.2 nM in series [3] and 21.7 nM in series [4]. The corresponding values for `C[C@@H]1CCC[C@H](N2CCC(c3c(F)ccc(Cl)c3F)=CC2=O)c2cc(ccn2)-c2cn[nH]c2NC1=O` [Example 221, 13-[4-(3-chloro-2,6-difluorophenyl)-6-oxo-1,2,3,6-tetrahydropyridin-1-yl]-9-methyl-4,5,7,15-tetraazatricyclo[12.3.1.0^2,6]octadeca-1(18),2(6),3,14,16-pentaen-8-one, 2TFA salt] are 1320 nM and above 417 nM.
